Earlier results on 11 compounds are cited in patent US20200261389A1 (priority 2014, published 2020).

Read-outs that look alike come from different tables or passages of the source.

The subject of series [1] is zinc-dependent metalloproteinases. Particulars: for reduction of GP shedding: higher concentrations (25-50 mM).
The subject of another series is retroviruses. Particulars: millimolar concentrations, in vitro.
For another series, the system named is cultured cells. Particulars: added to cultured cells.
Series [2] relates to Human Foreskin (HF) cells infected with HSV-2-strain G. Particulars: 3 to 1.5 mM.

As to `c1cnc2c(c1)ccc1cccnc12` [1,10-phenanthroline], in the series on leukemia cells, the “apoptosis / cell death of leukemia cells” value was “DNA fragmentation and cell death occurred”. In the case of `CNC(=O)[C@@H](NC(=O)[C@H](CC(C)C)[C@H](O)C(=O)NO)C(C)(C)C` [BB2516], in series [1] (concentration of 0.5 mM), the “inhibition of glycoprotein shedding” value was “inhibitory effects were observed”.

In the case of `COc1ccc(S(=O)(=O)N(Cc2cccnc2)[C@@H](C(=O)NO)C(C)C)cc1` [CGS-27023A], the “reduction of GP shedding” value in series [1] is given as “reduced GP shedding”. As to `O=C(O)CN(CCN(CC(=O)O)CC(=O)O)CC(=O)O` [EDTA, ethylenediaminetetraacetic acid], the effect on retroviruses entry in the series with retroviruses is recorded as “partial disintegration of viral membranes”. Turning to `O=C(O)CN(CCOCCOCCN(CC(=O)O)CC(=O)O)CC(=O)O` [EGTA, ethylene glycol tetraacetic acid], the effect on retroviruses entry in the series on retroviruses is given as “partial disintegration of viral membranes”. Take `CNC(=O)[C@H](Cc1c[nH]c2ccccc12)NC(=O)[C@@H](CC(=O)NO)CC(C)C` [GM6001]: the “inhibition of glycoprotein shedding” value in series [1] (concentration of 5 mM) is recorded as “inhibitory effects were observed”. `COc1ccc(S(=O)(=O)N(CC(=O)NO)CC(C)C)cc1` [MMP-3 inhibitor II]: the “reduction of GP shedding” value in series [1] is reported as “reduced GP shedding”. Turning to `COc1ccc(S(=O)(=O)N2Cc3ccccc3C[C@@H]2C(=O)NO)cc1` [MMP-8 inhibitor I], the “inhibition of glycoprotein shedding” value in series [1] (concentration of 5 mM) was “inhibitory effects were observed”. In the case of `CC(C)C[C@H](CC(=O)NO)C(=O)N[C@@H](Cc1ccc2ccccc2c1)C(=O)N[C@@H](C)C(=O)NCCN` [TAPI-I], the “reduction of GP shedding” value in series [1] is “reduced GP shedding”.

For the compound `c1ccc(CN(CCN(Cc2ccccn2)Cc2ccccn2)Cc2ccccn2)nc1` [TPEN, N,N,N′,N′-tetrakis-2-pyridyl methyl-ethylene diamine], the “apoptosis of cultured cells” value in the series with cultured cells is “induces apoptosis”. As for `O=C(O)c1ccccn1` [picolinic acid], the “apoptosis of infected cells” value in series [2] is “cause apoptosis of HF infected cells”. In addition, the “apoptosis / cell death of leukemia cells” value in the series with leukemia cells is “induces apoptosis”.
